From ChEMBL document CHEMBL3352165 (Eur J Med Chem, 2014)

How the values were obtained:
BT-474 [1] = experiment: Induction of cell cycle arrest in human BT474 cells assessed as accumulation at S phase at 10 uM incubated for 12 hrs by propidium iodide staining based flow cytometry (reference value: 19%); format: functional
BT-474 [2] = experiment: Induction of apoptosis in human BT474 cells at 0.1 uM incubated for 12 hrs by propidium iodide staining based flow cytometry (reference value: 1%); format: functional
BT-474 [3] = experiment: Induction of cell cycle arrest in human BT474 cells assessed as accumulation at S phase at 0.01 uM incubated for 12 hrs by propidium iodide staining based flow cytometry (reference value: 19%); format: functional
BT-474 [4] = experiment: Induction of cell cycle arrest in human BT474 cells assessed as accumulation at G2/M phase at 1 uM incubated for 12 hrs by propidium iodide staining based flow cytometry (reference value: 14%); format: functional
[5] = biological target: Receptor tyrosine-protein kinase erbB-2 (Homo sapiens, UniProt P04626); settings: BT-474, 0.001 to 1 uM
Sequence of Receptor tyrosine-protein kinase erbB-2 (P04626 whole entry): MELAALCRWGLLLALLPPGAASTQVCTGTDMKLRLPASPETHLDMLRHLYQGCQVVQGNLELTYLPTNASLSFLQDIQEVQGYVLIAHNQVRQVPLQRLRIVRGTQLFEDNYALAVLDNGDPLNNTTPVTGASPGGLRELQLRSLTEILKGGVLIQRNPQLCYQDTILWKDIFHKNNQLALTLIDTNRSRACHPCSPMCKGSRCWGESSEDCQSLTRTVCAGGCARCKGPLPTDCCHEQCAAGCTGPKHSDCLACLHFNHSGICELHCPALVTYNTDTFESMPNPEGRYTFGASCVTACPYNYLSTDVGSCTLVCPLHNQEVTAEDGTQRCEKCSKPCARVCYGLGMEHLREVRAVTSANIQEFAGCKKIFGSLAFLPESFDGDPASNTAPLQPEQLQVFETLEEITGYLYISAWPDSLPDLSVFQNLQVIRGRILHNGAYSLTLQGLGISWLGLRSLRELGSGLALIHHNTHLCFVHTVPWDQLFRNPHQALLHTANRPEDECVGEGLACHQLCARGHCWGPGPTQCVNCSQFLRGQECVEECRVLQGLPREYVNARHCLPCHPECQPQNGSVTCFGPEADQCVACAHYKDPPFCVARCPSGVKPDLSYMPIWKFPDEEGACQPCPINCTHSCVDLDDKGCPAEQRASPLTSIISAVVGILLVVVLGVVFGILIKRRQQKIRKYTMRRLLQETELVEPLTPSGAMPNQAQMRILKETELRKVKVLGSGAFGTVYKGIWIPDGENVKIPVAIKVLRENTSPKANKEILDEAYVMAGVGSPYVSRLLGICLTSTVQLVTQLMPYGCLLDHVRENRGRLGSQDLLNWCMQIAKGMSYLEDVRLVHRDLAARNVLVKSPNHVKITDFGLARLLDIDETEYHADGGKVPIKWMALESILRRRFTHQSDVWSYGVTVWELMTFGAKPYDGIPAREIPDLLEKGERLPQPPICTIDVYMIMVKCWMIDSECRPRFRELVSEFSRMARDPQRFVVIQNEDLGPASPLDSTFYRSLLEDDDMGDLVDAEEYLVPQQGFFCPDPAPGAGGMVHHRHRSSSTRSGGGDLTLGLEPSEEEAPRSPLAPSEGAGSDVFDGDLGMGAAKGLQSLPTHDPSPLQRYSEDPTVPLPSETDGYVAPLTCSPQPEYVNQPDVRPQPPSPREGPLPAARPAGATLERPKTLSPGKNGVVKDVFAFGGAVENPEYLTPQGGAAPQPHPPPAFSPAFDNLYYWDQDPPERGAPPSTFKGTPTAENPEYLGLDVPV
Description: Inhibition of HER2 (unknown origin) expressed in human BT474 cells assessed as reduction in ERK1/2 phosphorylation at 0.001 to 1 uM incubated for 2 hrs by Western blot method

inhibition [5]: Dose-dependent effect
Structure (SMILES): CN(C)[C@H](CS(C)(=O)=O)c1ccc(-c2ccc3ncnc(Nc4ccc(OCc5cccc(F)c5)c(Cl)c4)c3c2)o1
Activity (BT-474 [1]): 8% | Activity (BT-474 [2]): 4% | Activity (BT-474 [3]): 9% | Activity (BT-474 [4]): 12%
